Assay results from US9403756B2, “N-phenyl anthranilic acid derivatives and uses thereof” (Ramot at Tel-Aviv University Ltd., priority 2007, dated 2016).
“Also recorded” adds a separate entry of the source.

Tests used:
KCNQ2 mutant R198A = target: T1, KCNQ2 mutant R198A (Homo sapiens, UniProt O43526, R198A); assay: KCNQ2 S4 mutant R198A; format: cell-based; conditions: RTG
T1 construct: expressed in transfected cells
Excerpt: (§1) FIGS. 12A-F present the potentiating effect of NH29, an exemplary channel opener compound according to embodiments of the present invention, on selected KCNQ2 mutants. Shown are bar diagrams comparing the potentiating effect of NH29 on native KCNQ2 and KCNQ2 mutants, wherein the mutated amino acids are located at the S1-S2 helix region (FIG. 12A) or S4 helix region (FIG. 12D) and wherein the opener effect is expressed as percent of the control current in the absence of the opener. For comparison, marked as a green line, is the observed current increase of native KCNQ2 by NH29. FIGS. 12B 12C, 12E and 12F present representative traces recorded from CHO cell transfected with the KCNQ2 mutant S122A, S121A, L206C and R201A respectively, before and after external application of 25 μM of NH29 and wherein the membrane potential was stepped from −90 mV holding potential to −40 mV for 1.5 seconds pulse duration.
(§2) Voltage-clamp recordings in CHO cells were performed, using the whole-cell configuration of the patch-clamp technique. Signals were amplified using an Axopatch 200B patch-clamp amplifier (Molecular Devices, Sunnyvale, Calif.), sampled at 2 kHz and filtered at 800 Hz via a 4-pole Bessel low pass filter. […] Series resistances (3-13 MΩ) were compensated (75-90%) and periodically monitored.

KCNQ2 mutant R207W = target: T2, KCNQ2 mutant R207W (Homo sapiens, UniProt O43526, R207W); format: cell-based; conditions: RTG (25 μM, −40 mV, FIG. 11B)
T2 construct: expressed in transfected cells; host or cells: CHO cells
Excerpt: FIGS. 10A-D present the potentiating effect of NH29, an exemplary channel opener compound according to embodiments of the present invention, on wild type KCNQ2 (FIGS. 10A and 10B) and R207W mutant (FIGS. 10C and 10D) channels, as expressed in activation curve measurements, showing that NH29 left-shifts the activation curve (ΔV50) by −15.5 mV and −5.5 mV in the case of the wild-type and the mutant, respectively, and showing that NH29 enhances the current of wild-type and the mutant by about 3.4-fold (at −40 mV) and 1.5-fold (at −20 mV), respectively.
(§3) FIGS. 11A-F present the potentiating effect of NH29, an exemplary channel opener compound according to embodiments of the present invention, and Retigabine, on KCNQ2 mutants R207W and W236L mutant. Shown are representative traces recorded from CHO cell transfected with the KCNQ2 mutant R207W 0, 1 and 4-4.5 minutes after external application of 25 μM of NH29 and wherein the membrane potential was stepped from −90 mV holding potential to −20 mV for 1.5 seconds pulse duration (FIG. 11A), or 0, 1 and 4 minutes after external application of 25 μM of Retigabine wherein the membrane potential was stepped from −90 mV holding potential to −40 mV for 1.5 seconds pulse duration (FIG. 11B). FIGS. 11C and 11D show representative traces recorded from CHO cells transfected with the KCNQ2 mutant W236L 0, 1 and 6 minutes after external application of 25 μM of NH29 (FIG. 11C) or 0 and 5 minutes after external application of 10 μM of Retigabine (FIG. 11D) and wherein the membrane potential was stepped from −90 mV holding potential to −40 mV for 1.5 seconds pulse duration. FIG. 11E presents superimposed traces, showing the effects of Retigabine (RTG) and NH29 on the channel activity of KCNQ2 mutant W236L as measured at −40 mV; and FIG. 11F presents a bar diagram comparing the potentiating effect of NH29 and Retigabine on native KCNQ2 and KCNQ2 mutants, wherein the opener effect is expressed as percent of the control current in the absence of the opener.
(§4) Voltage-clamp recordings in CHO cells were performed, using the whole-cell configuration of the patch-clamp technique. Signals were amplified using an Axopatch 200B patch-clamp amplifier (Molecular Devices, Sunnyvale, Calif.), sampled at 2 kHz and filtered at 800 Hz via a 4-pole Bessel low pass filter. Data were acquired using pClamp 9.2 software (Molecular Devices) and an IBM compatible Pentium IV computer in conjunction with a DigiData 1322A interface (Molecular Devices). The patch pipettes were pulled from borosilicate glass (Warner Instrument Corp, USA) with a resistance of 2-5 MΩ. For K^+ current recordings in CHO cells, the intracellular pipette solution contained (in mM): 130 KCl, 1 MgCl2, 5 K2ATP, 5 EGTA, 10 HEPES, adjusted with KOH to pH 7.4 (290 mOsm). The extracellular solution contained (in mM): 140 NaCl, 4 KCl, 1.8 CaCl2, 1.2 MgCl2, 11 glucose, 5.5 HEPES, adjusted with NaOH to pH 7.4 (310 mOsm). Series resistances (3-13 MΩ) were compensated (75-90%) and periodically monitored.

KCNQ2 mutant S121A = target: T3, KCNQ2 mutant S121A (Homo sapiens, UniProt O43526, S121A); assay: KCNQ2 S1-S2 mutant S121A in CHO cells; format: cell-based; conditions: RTG
T3 construct: expressed in transfected cells; host or cells: CHO cells
Excerpt: as §1, §2

KCNQ2 mutant W236L = target: T4, KCNQ2 mutant W236L (Homo sapiens, UniProt O43526, W236L); assay: KCNQ2 mutant W236L in CHO cells; format: cell-based; conditions: 10 μM retigabine; 10 μM or 25 μM NH29
T4 construct: expressed in transfected cells; host or cells: CHO cells
Procedure: as §3, with “FIG. 11E presents superimposed traces, showing the effects of Retigabine (RTG) and NH29 on the channel activity of KCNQ2 mutant W236L as measured at −40 mV; and FIG. 11F presents a bar diagram comparing the potentiating effect of NH29 and Retigabine on native KCNQ2 and KCNQ2 mutants, wherein the opener effect is expressed as percent of the control current in the absence of the opener.” left out
Voltage-clamp recordings in CHO cells were performed, using the whole-cell configuration of the patch-clamp technique. […] Series resistances (3-13 MΩ) were compensated (75-90%) and periodically monitored.

DRG neurons [1] = assay: Current-clamp recordings in cultured DRG neurons; format: cell-based, rat
Procedure: For dorsal root ganglion (DRG) neuronal cultures, ganglia were dissected from 2-5 day-old Sprague-Dawley rats killed by decapitation. DRGs were placed in Hank's balanced saline solution (HBSS) and prepared by enzymatic dissociation. Briefly, after 30 minutes incubation in 5 mg/ml dispase, 2 mg/ml collagenase type 1A and 0.1 mg/ml DNase (Invitrogen/Gibco, Carlsbad, Calif.) in Ca^2+ and Mg^2+-free HBSS, the ganglia were mechanically triturated with a fire-polished glass Pasteur pipette. The ganglia were then centrifuged for 5 minutes at 80×g and resuspended in DMEM supplemented with 2 mM L-glutamine, 16.5 mM NaHCO3, 6 g/l glucose, 5 ml penicillin/streptomycin and 10% fetal calf serum.
For electrophysiological recording, dissociated neurons were plated on 13 mm glass coverslips, previously coated with poly-D-lysine (1 mg/ml) and laminin (10 μg/ml) and used at 1-2 days in culture.
For current-clamp recordings in primary cultured neurons, the patch pipettes were filled with (in mM): 135 KCl, 1 K2ATP, 1 MgATP, 2 EGTA, 1.1 CaCl2, 5 glucose, 10 HEPES, adjusted with KOH at pH 7.4 (315 mOsm). The external solution contained (in mM): 150 NaCl, 2.5 KCl, 2 CaCl2, 2 MgCl2, 15 glucose, 10 HEPES, adjusted with NaOH at pH 7.4 (325 mOsm). Recordings were sampled at 5 kHz and filtered at 2 KHz via a 4-pole Bessel low pass filter. A liquid junction potential of about −15.6 mV was measured between the intracellular and saline solutions and corrected on-line.
For evoking spike discharges, 75-200 pA square depolarizing current pulses were injected into neurons for 400 ms. For rheobase current measurements, 100-1100 pA square depolarizing current pulses were injected into neurons for 2 ms.

Kv7.2/3 channels = target: T5, Kv7.2/3 channels (Homo sapiens, UniProt O43525+O43526); assay: Kv7.2/3 channels coexpressed in CHO cells, whole-cell patch-clamp; format: cell-based
T5 construct: expressed in transfected cells; host or cells: CHO cells
Procedure: Chinese hamster ovary (CHO) cells were grown in Dulbecco's modified Eagle's medium (DMEM) supplemented with 2 mM glutamine, 10% fetal calf serum and antibiotics. Briefly, 40,000 cells seeded on poly-D-lysine-coated glass coverslips (13 mm diameter) in a 24-multiwell plate were transfected with pIRES-CD8 (0.5 μg) as a marker for transfection, and with Kv7.2 (0.5 μg) and Kv7.3 (0.5 μg) or TRPV1 […] or TRPV6 […].
For electrophysiology, transfected cells were visualized approximately 40 hours following transfection, using anti-CD8 antibody-coated beads. Transfection was performed using Fugene 6 (Roche, Indianapolis Ind., USA) according to the manufacturer's protocol.
as §4, with “Data were acquired using pClamp 9.2 software (Molecular Devices) and an IBM compatible Pentium IV computer in conjunction with a DigiData 1322A interface (Molecular Devices).” left out, “mOsm).” for “mOsm). Series resistances (3-13 MΩ) were compensated (75-90%) and periodically monitored.”
Data analysis was performed using the Clampfit program (pClamp 9.2, Molecular Devices), Microsoft Excel (Microsoft) and Prism 4.0 (GraphPad). Chord conductance (G) was calculated by using the following equation: G=I/(V−Vrev) where I corresponds to the current amplitude measured at the end of the pulse and Vrev, the calculated reversal potential. G was estimated at various test voltages V and then, normalized to a maximal conductance value, Gmax. Activation curves were fitted by one Boltzmann distribution: G/Gmax=1/{1+exp[(V50−V)/s]} where V50 is the voltage at which the current is half-activated and s is the slope factor. All data were expressed as mean±SEM. Statistically significant differences were assessed by Student's t-test. Analysis of sEPSCs and sIPSCs was done using the Clampfit program (pClamp 9.2, Molecular Devices) and included evaluation of the individual events as well as the average event amplitude and the integral of the event (total charge transfer).
In these studies, the impact of the compounds on M-channel activity was measured by the heterologous coexpression of Kv7.2 and Kv7.3 subunits in CHO cells.

DRG neurons [2] = assay: Current-clamp recordings in cultured DRG neurons; format: cell-based, rat; conditions: 1 μM NH17; about 10-20 pA for 400 ms; control 1±0; n=5

T4 sequence (O43526 whole entry W236L): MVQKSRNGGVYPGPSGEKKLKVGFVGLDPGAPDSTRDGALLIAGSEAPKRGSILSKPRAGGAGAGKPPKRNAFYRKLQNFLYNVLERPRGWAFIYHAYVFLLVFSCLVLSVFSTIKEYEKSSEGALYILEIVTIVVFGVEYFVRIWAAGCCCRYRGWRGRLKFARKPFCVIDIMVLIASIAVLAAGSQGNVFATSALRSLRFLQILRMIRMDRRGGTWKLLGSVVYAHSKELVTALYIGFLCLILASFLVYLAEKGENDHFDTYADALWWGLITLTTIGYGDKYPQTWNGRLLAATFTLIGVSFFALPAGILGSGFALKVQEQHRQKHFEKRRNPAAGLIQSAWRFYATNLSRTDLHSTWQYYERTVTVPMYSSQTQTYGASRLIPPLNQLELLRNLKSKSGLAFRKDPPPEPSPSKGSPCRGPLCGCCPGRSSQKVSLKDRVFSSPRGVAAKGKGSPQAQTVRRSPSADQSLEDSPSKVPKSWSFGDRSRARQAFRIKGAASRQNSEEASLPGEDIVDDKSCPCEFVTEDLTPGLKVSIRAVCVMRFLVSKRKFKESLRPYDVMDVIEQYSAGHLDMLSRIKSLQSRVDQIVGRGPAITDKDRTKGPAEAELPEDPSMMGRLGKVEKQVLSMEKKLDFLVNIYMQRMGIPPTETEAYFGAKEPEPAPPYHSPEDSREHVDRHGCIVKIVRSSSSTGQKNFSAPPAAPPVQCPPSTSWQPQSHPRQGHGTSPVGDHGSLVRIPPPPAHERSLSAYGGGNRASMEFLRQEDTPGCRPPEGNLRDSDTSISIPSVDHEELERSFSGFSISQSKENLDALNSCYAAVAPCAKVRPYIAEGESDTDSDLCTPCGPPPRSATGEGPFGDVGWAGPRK
T2 sequence (O43526 whole entry R207W): as the sequence (O43526 whole entry W236L) above, with R207W, L236W counted along it
T3 sequence (O43526 whole entry S121A): as the sequence (O43526 whole entry W236L) above, with S121A, L236W counted along it
T1 sequence (O43526 whole entry R198A): as the sequence (O43526 whole entry W236L) above, with R198A, L236W counted along it

SMILES	fold increase of current amplitude (KCNQ2 mutant R198A)	fold increase of current amplitude (KCNQ2 mutant R207W)	fold increase of current (KCNQ2 mutant S121A)	effect of point mutation W236L on the opener effect (KCNQ2 mutant W236L)	decrease in rheobase current (DRG neurons [1]; 1 μM NH17)	depolarization of DRG membrane potential (ΔV) (DRG neurons [1]; 1 μM NH17, within 2 minutes)	rheobase current to generate a single spike (DRG neurons [1]; 1 μM NH17, 2 ms injection, control 650±71 pA, n=6)	inhibition at 25 µM (Kv7.2/3 channels; CHO, 25 μM, membrane potentials from −60 to +50 mV, read-out: inhibition of the Kv7.2/3 current)	Activity (Kv7.2/3 channels; M-channel modulation, Kv7.2 and Kv7.3 subunits coexpressed in CHO cells)	EC50 (Kv7.2/3 channels; compounds whose Activity is Blocker, read-out: EC50)	IC50 (Kv7.2/3 channels; recombinant Kv7.2/3 in CHO cells, read-out: IC50, blockade of the K+ currents)	number of evoked spikes (DRG neurons [2])
CCOC(=O)Nc1ccc(NCc2ccc(F)cc2)cc1N [retigabine, N-(2-amino-4-(4-fluorobenzylamino)-phenyl)carbamic acid ethyl ester, reference compound]	4.4 fold	more than 6 fold	more than 5 fold	completely abolished the opener effect	–	–	–	–	–	–	–	–
Cl.NCCOCCOC(=O)Cc1ccccc1Nc1c(Cl)cccc1Cl [NH17]	–	–	–	–	about 300 pA	+7±1 mV	347±44 pA	> 90%	potent M-channel blockers; also recorded: Blocker	11 µM	11 µM	12±2
